Assay results as given in patent US20120135997A1, “PHARMACEUTICAL COMPOSITION COMPRISING A LACTAM OR BENZENESULFONAMIDE COMPOUND” (Shionogi & Co., Ltd., priority 2009, published 2012).
pIC50: −log10 of the molar value.

What was measured:
[1] = Solubility test; assay type: physicochemical; details: kinetic from dmso stock; 1% DMSO, artificial intestinal juice pH 6.8, 16 hours at 25° C.
Description: The solubility of each compound is determined under 1% DMSO addition conditions. A 10 mM solution of the compound is prepared with DMSO, and 6 μL of the compound solution is added to 594 μL of an artificial intestinal juice (water and 118 mL of 0.2 mol/L NaOH reagent are added to 250 mL of 0.2 mol/L potassium dihydrogen phosphate reagent to reach 1000 mL) with a pH of 6.8. The mixture is left standing for 16 hours at 25° C., and the mixture is vacuum-filtered. The filtrate is two-fold diluted with methanol/water=1/1, and the compound concentration in the filtrate is measured with HPLC or LC/MS/MS by the absolute calibration method.

[2] = target: T1, hERG channel (IKr) (Homo sapiens, UniProt Q12809); test: hERG test (whole-cell patch clamp, IKr); assay type: cell-based; details: HEK293 cells that express hERG, pH 7.4, HEK293 cell expressing hERG, room temperature, concentration not given, read-out: inhibitory percentage relative to the maximum tail current (IKr)
T1 construct: expressed in transfected cells; host or cells: HEK293
Text: For the purpose of risk assessment for QT prolongation on an electrocardiogram, the action on delayed rectifier K+ current (IKr) which plays an important role on a process of ventricular repolarization is studied using a HEK293 cell with a human ether-a-go-go related gene (hERG) channel expressed therein.
A cell is maintained at a membrane potential of −80 mV, and then +50 mV of a depolarizing stimulus is applied to the cell for 2 seconds and further −50 mV of a repolarizing stimulus is applied thereto for 2 seconds by a whole-cell patch clamp technique with a fully-automatic patch clamp system (PatchXpress 7000A, Axon Instruments Inc.), and the induced IKr is recorded. As the current generated is stabilized, an extracellular fluid with the test compound dissolved therein at a target concentration (NaCl: 137 mmol/L, KCl: 4 mmol/L, CaCl2.2H2O: 1.8 mmol/L, MgCl2.6H2O: 1 mmol/L, glucose: 10 mmol/L, HEPES (4-(2-hydroxyethyl)-1-piperazineethanesulfonic acid): 10 mmol/L, pH=7.4) is applied to the cell for 10 minutes under room temperature conditions. The absolute value of the maximum tail current is determined from the obtained IKr with an analysis software (DataXpress ver. 1, Molecular Devices Corporation) based on a current value at a maintained membrane potential. Further, an inhibitory percentage relative to the maximum tail current before application of the test compound is calculated, and influence of the test compound on IKr is evaluated in comparison with the medium application group (0.1% dimethyl sulfoxide solution).

[3] = system: Aβ42 production; test: Suppressive activity of Aβ42 production in neuroblast expressing human APP695 (ELISA of secreted Aβ42); assay type: cell-based; details: secreted Aβ42, SH-SY5Y-APPwt cells, 24 hours
Description: Dose dependent effect of each test compound was evaluated by measurement of secreted Aβ42 and cell viability in SH-SY5Y-APPwt cells. Secreted Aβ42 was quantified by an ELISA assay and cell viability was measured using a cell count reagent.
SH-SY5Y-APPwt cells were generated from human SH-SY5Y neuroblast by transfection of human APP695 DNA as a stable cell-line and cultured in DMEM supplemented with 10% FCS.
SH-SY5Y-APPwt cells were plated at 1.2×10^5 cells/well/150 μl in 96-well plates. A solution of the test compound in DMSO was diluted with DMEM to a concentration 4-fold higher than the final concentration. 50 μl of the diluted solution was sufficiently mixed with the cells and the final DMEM solution was 200 μl/well. The final DMSO concentration was 1%. As a control compound, a γ-secretase inhibitor, DAPT (Calbiochem) was used. 24 hours after, the culture supernatant was collected and appropriately diluted for ELISA quantification of Aβ42. Cells were used for cell viability assay.
Human/Rat β Amyloid(42) ELISA Kit WAKO (WAKO Pure Chemical Industries) was used for ELISA. ELISA was carried out according to the protocols recommended by the manufacturer's instructions. The results were shown as percentage to the Aβ concentration in the medium of control group (% of Control) and then IC50 values of each test compounds were calculated. Cell viability was measured using Cell Count Reagent SF (NACALAI TESQUE) according to the protocols recommended by the manufacturer's instructions. The results were shown as percentage to cell viability of control group (% of Control) and reduction of cell viability was not seen.

[4] = Metabolic stability test; assay type: in vitro ADME; details: human liver microsomes 0.5 mg protein/mL, 1 mmol/L NADPH, 30 minutes at 37° C.
Description: The test compound is reacted with commercially available pooled human liver microsomes for a predetermined time period. The residual rate is calculated by comparing the reacted sample and unreacted sample, and thus the degree of metabolism in liver is evaluated. In 0.2 mL of a buffer (50 mmol/L tris-HCl pH 7.4, 150 mmol/L potassium chloride, 10 mmol/L magnesium chloride) containing human liver microsomes 0.5 mg protein/mL, reaction is carried out in the presence of 1 mmol/L NADPH for 0 minute or 30 minutes at 37° C. (oxidative reaction). After the reaction, 50 μL of the reaction solution is added to and mixed with 100 μl of a solution of methanol/acetonitrile=1/1 (v/v), and the mixture is centrifuged for 15 minutes at 3000 rpm. The test compound in the centrifuged supernatant is quantified by LC/MS/MS, and the residual amount of the test compound after the reaction is calculated based on the compound amount at O-minute reaction set as 100%.

[5] = system: γ-secretase; test: Inhibition of γ-secretase activity: CTFβ ELISA in SH-SY5Y-APPwt cells; assay type: cell-based, human; details: concentration 1-fold and 10-fold higher than IC50 for Aβ42 inhibition, 24 hours
Description: Inhibition of γ-secretase activity of the test compounds were evaluated by assessment of APP processing by γ-secretase, i.e., by measurement of a γ-secretase substrate C-terminal fragment β (CTFβ) in SH-SY5Y-APPwt cells. Cells were treated in test compound concentration 1-fold and 10-fold higher than its IC50 value for Aβ42 inhibition. CTFβ accumulated by inhibition of γ-secretase activity was quantified by an ELISA assay. SH-SY5Y-APPwt cells were generated from human SH-SY5Y neuroblast by transfection of human APP695 DNA as a stable cell-line and cultured in DMEM supplemented with 10% FCS. SHSY5Y-APPwt cells were plated at 1.0×10^6 cells/well/1 ml DMEM in 6-well plates. A solution of the test compound in DMSO was diluted with DMEM to a concentration 2-fold higher than the final concentration. 1 ml of the diluted solution was sufficiently mixed with the cell and the final DMEM solution was 2 mL/well. The final DMSO concentration was 1%. As a control compound, a γ-secretase inhibitor, DAPT (Calbiochem) was used. […] Protein concentrations in the supernatants were measured by Protein assay Kit (Pierce). The supernatants were diluted and used for CTFβ quantification by βCTF ELISA Kit (IBL) The results were shown as percentage to the CTFβ concentration of control group (added only DMSO) (% of Control), and increasing and decreasing CTFβ of the test compound was calculated. […]

[6] = target: CYP3A4 (Homo sapiens, UniProt P08684); test: CYP3A4 fluorescent MBI test; assay type: in vitro ADME; set-up: host or cells: E. coli; details: E. coli-expressing CYP3A4, substrate 7-BFC, pre-reaction 0 or 30 minutes
Description: The CYP3A4 fluorescent MBI test is a test to examine enhancement of CYP3A4 inhibition by metabolic reaction of the compound. Here, E. coli-expressing CYP3A4 was used as an enzyme, and a reaction wherein 7-benzyloxy trifluoromethylcumarin (BFC) was debenzylated by the CYP3A4 enzyme into a fluorescent metabolite 7-hydroxytrifluoromethylcumarin (HFC) was employed as an indicator reaction.
The reaction conditions are as follows.
Substrate: […] 7-BFC; Pre-reaction time: 0 or 30 minutes; Reaction time: 15 minutes; Reaction temperature: 25° C. […]
The enzyme and a test compound solution are added to a K-Pi buffer (pH 7.4) in the aforementioned amounts for the pre-reaction so that a pre-reaction solution is prepared, and this solution is put into a 96-well plate. […] With respect to each of the plates on which the indicator reaction is performed, the fluorescence value of the metabolite 7-HFC is measured with a fluorescence plate reader (Ex=420 nm, Em=535 nm).
Control (100%) is prepared by adding only DMSO, a solvent to dissolve the test compound, to the reaction system. The remaining activity (%) at each concentration after adding the test compound solution is calculated, and the IC50 value is calculated from the concentration and inhibition percentage by inverse estimation with the logistic model. […]

T1 sequence (Q12809 whole entry): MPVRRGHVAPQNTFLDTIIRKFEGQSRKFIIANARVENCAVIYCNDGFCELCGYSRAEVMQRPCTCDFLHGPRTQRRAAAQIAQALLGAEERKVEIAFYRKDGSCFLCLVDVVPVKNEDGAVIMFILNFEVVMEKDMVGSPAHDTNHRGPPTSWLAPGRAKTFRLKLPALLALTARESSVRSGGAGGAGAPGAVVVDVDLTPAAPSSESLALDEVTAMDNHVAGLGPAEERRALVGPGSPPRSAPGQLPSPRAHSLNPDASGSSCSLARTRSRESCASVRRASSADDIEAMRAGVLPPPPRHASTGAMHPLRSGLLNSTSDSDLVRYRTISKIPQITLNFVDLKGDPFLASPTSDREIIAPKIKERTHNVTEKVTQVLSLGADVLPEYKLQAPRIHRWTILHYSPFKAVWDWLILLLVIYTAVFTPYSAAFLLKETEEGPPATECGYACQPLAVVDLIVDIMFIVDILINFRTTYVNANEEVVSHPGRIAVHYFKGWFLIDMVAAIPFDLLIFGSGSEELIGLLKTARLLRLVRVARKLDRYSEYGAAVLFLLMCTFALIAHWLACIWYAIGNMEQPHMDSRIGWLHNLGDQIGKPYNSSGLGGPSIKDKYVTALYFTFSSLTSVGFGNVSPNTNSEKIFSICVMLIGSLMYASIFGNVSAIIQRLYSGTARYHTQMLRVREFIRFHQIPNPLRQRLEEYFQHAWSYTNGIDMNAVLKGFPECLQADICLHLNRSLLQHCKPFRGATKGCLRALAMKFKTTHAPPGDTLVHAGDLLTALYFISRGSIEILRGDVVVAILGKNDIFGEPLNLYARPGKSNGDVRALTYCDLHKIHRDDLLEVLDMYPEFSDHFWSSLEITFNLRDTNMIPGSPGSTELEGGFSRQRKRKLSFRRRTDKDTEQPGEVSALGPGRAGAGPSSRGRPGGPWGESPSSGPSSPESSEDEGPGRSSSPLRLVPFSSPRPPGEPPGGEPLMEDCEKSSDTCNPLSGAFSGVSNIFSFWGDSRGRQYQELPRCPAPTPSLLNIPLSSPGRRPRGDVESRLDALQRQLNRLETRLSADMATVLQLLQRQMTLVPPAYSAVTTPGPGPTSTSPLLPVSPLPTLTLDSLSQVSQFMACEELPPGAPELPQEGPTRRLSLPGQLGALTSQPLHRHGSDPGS
Chain of CYP3A4 (P08684 whole entry): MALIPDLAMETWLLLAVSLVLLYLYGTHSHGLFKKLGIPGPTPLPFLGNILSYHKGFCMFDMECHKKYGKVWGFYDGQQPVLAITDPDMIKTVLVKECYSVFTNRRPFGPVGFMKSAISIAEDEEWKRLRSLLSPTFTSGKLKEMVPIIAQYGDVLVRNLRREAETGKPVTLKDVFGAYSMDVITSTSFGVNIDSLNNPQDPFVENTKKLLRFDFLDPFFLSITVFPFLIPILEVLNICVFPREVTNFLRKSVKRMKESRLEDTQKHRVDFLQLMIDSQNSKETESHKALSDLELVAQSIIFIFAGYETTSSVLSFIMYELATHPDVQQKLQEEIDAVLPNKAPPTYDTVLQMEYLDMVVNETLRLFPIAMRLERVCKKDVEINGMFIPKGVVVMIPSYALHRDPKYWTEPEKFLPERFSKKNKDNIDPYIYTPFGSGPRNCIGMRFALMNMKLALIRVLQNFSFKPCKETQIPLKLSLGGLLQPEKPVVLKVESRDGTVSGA

**Q.** For `COc1cc(NS(=O)(=O)c2ccccc2[N+](=O)[O-])ccc1-n1cnc(C)c1` [Compound 74], which solubility at 16 h [1] is on record?
**A.** Its solubility at 16 h is > 50 µM.

**Q.** What about the inhibition at 10 min [2] of the same compound?
**A.** The inhibition at 10 min was 1.1%.

**Q.** With `COc1cc(NC(=O)Cc2ccc(Cl)c(Cl)c2)ccc1-n1cnc(C)c1` [Compound E8] as the compound, how does the pIC50 [3] read?
**A.** Its pIC50 is 5.96.

**Q.** With `COc1cc(N2Cc3ccc(-c4ccccc4Cl)cc3C2=O)ccc1-n1cnc(C)c1` [Compound 189] as the compound, how does the pIC50 [3] read?
**A.** Its pIC50 is 5.80.

**Q.** With `COc1cc(NS(=O)(=O)c2ccc(Cl)nc2)ccc1-n1cnc(C)c1` [Compound 113] as the compound, how does the “residual amount of the test compound after the reaction” value [4] read?
**A.** Its value is 97.0%.

**Q.** What about the inhibition at 10 min [2] of the same compound?
**A.** Its inhibition at 10 min is 8.5%.

**Q.** With `C[C@H](NC(=O)Cc1cc(F)cc(F)c1)C(=O)N[C@H](C(=O)OC(C)(C)C)c1ccccc1` [DAPT] as the compound, how does the “change of CTFβ” value [5] read?
**A.** Its value is “dose-dependently increased CTFβ”.

**Q.** With `COc1cc(NS(=O)(=O)c2ccccc2-c2csc3ccccc23)ccc1-n1cnc(C)c1` [Compound 111] as the compound, how does the “CYP3A4 MBI: difference of the IC50 values” [6] read?
**A.** The value was “(−) (when the difference is 3 μM or lower, it is regarded as (−))”.

**Q.** With `COc1cc(NS(=O)(=O)c2ccc(Cl)c(Cl)c2)ccc1-n1cnc(C)c1` [Compound 1] as the compound, how does the “CYP3A4 MBI: difference of the IC50 values” [6] read?
**A.** Its value is “(−) (when the difference is 3 μM or lower, it is regarded as (−))”.

**Q.** What about the pIC50 [3] of the same compound?
**A.** The pIC50 was 6.05.

**Q.** For `COc1cc(NS(=O)(=O)c2ccccc2-c2ccncc2)ccc1-n1cnc(C)c1` [Compound 178], which solubility at 16 h [1] is on record?
**A.** The solubility at 16 h was > 50 µM.

**Q.** With `COc1cc(N2CCC(C(c3ccccc3)c3ccccc3)C2=O)ccc1-n1cnc(C)c1` (centres unmarked) [Compound 259] as the compound, how does the pIC50 [3] read?
**A.** The pIC50 was 6.15.

**Q.** With `COc1cc(NS(=O)(=O)Cc2cccc(Cl)c2)ccc1-n1cnc(C)c1` [Compound 38] as the compound, how does the pIC50 [3] read?
**A.** The pIC50 was 5.18.

**Q.** With `COc1cc(NS(=O)(=O)c2ccccc2F)ccc1-n1cnc(C)c1` [Compound 69] as the compound, how does the inhibition at 10 min [2] read?
**A.** The inhibition at 10 min was 6.4%.

**Q.** Which “residual amount of the test compound after the reaction” value [4] does the source give for `COc1cc(NS(=O)(=O)c2cccnc2Cl)ccc1-n1cnc(C)c1` [Compound 115] here?
**A.** Its value is 97.8%.

**Q.** With `COc1cc(N2CCC(NCc3ccc(Cl)cc3)C2=O)ccc1-n1cnc(C)c1` (centres unmarked) [Compound 231] as the compound, how does the pIC50 [3] read?
**A.** Its pIC50 is 5.74.

**Q.** With `COc1cc(N2CCC(NC(=O)c3cccc(Cl)c3)C2=O)ccc1-n1cnc(C)c1` (centres unmarked) [Compound 201] as the compound, how does the pIC50 [3] read?
**A.** Its pIC50 is 6.10.
